Measured values as given in a melting point compilation (Tetko et al.; mined from patent text by program, amines drawn as free bases though some values may be those of a salt).

Compound	melting point [°C]
CCOC(=O)c1cc2cc(C3=C(c4cnc5[nH]cc(C(=O)C(C)(C)C)c5n4)CCC3)ccc2[nH]1	278 to 280
O=C1COc2ccc(-c3cnn(CC(F)(F)F)c3-c3ccc(F)cc3)cc2N1	227
CCN1c2ccccc2CC(C#N)c2ccccc21 (stereo unspecified)	127 to 129
N[C@@H](Cc1ccc(F)cc1)[C@H](O)c1ccc(C(F)(F)F)cc1 (racemic)	130 to 131
Cc1ccc(N2CCN(Cc3ccc4c(c3)NC(=O)CO4)CC2)cc1	209 to 212
C=C(C)c1ccc(O)c(-n2nc3ccccc3n2)c1	124
CC[C@H](C)[C@H](NC(C)=O)C(=O)N[C@H](C(=O)N[C@@H](CC1CCCCC1)[C@@H](O)[C@@H](O)CC(C)C)[C@@H](C)CC	247 to 248
Cc1c(F)c(F)c(C(=O)NC2CCCCCC2)c(F)c1F	164 to 165
CCCCCCC1CCC2C(CCC3CC(=O)CCC32)C1 (stereo unspecified)	49
C#CCn1c(=O)n(CCN2CCN(c3ccccc3OC)CC2)c(=O)c2cscc21	142 to 143
COc1cc(O)c(C=O)cc1C12CC3CC(CC(C3)C1)C2	191 to 193
CCOC(=O)c1c(-c2ccccc2)c2ccc(Cl)cc2c(=O)n1C	152 to 153
Cc1nc(C(=O)N(C)C)c2n1-c1ccc(Cl)cc1C(c1ccccc1Cl)=NC2	225 to 230
CCCOc1ccc2c(c1)[C@H](c1ccc(OC)cc1-c1ccccc1)[C@@H](C(=O)O)[C@@H]2c1ccc2c(c1)OCO2 (racemic)	199 to 200
CC(C)(C)c1cc(C2=NNC(=O)CC2)cc(C(C)(C)C)c1O	200 to 203
COC(=O)c1cc(C)c(C(OC(=O)C(C)NS(=O)(=O)c2ccc(Cl)cc2)c2cc(-n3ccnc3)ccc2C)c(C)c1 (stereo unspecified)	126 to 128
CC(=O)NCCC1CCc2ccc3nc(C4CC4)oc3c21 (stereo unspecified)	92 to 95
CCOC(=O)Nc1c(C)cc(Cl)cc1C(=O)O	124 to 126
COC1CN(C(=O)c2cc(-c3ccccc3)c(=O)n3c2-c2sccc2C3)C1	192 to 193
COc1ccc2c(c1)CCC(N(C)c1ccc(O)cc1)C2 (stereo unspecified)	79 to 82
Cc1cccc(-c2ccc3c(c2)c(CC(=O)O)cn3Cc2ccc(C(C)(C)C)cc2)c1	91 to 92
O=C1NCCc2ccc(OCCCCN3CCN(c4cccc5c4OCCCO5)CC3)nc2N1	78 to 79

Compound	melting point [°C]
CO/N=C(\C)[C@H]1CC[C@H]2[C@@H]3CC=C4C[C@@H](O)CC[C@]4(C)[C@H]3CC[C@]12C	167 to 168
CCOC(=O)c1c(C)nc2c(cnn2CCC(C)CC)c1N (stereo unspecified)	217 to 222
O=C(CNC(=O)c1ccc(Cl)c(Cl)c1)c1ccoc1	133 to 134
CN1CC2c3ccccc3Cc3ncccc3N2C1 (stereo unspecified)	127 to 129
Cn1c(=O)c(C#N)c(N2CCN(C(=O)c3cccs3)CC2)c2ccccc21	247
CCCCCCCCCCC(O)C1CCC(C2CCC(C(O)CCCCCCCCCC(O)CC3=CC(C)OC3=O)O2)O1 (stereo unspecified)	69 to 70
Cc1ccc(-c2ccc3c(c2)C=C(C(=O)Nc2ccc(CCl)cc2)CC3)cc1	178 to 179
COC(=O)C1C(OC)=CCc2ccc(OC)cc21 (stereo unspecified)	90 to 91
CNC(=S)C1(c2cccnc2)CCCS1 (stereo unspecified)	133
COc1cc2cc(/C=C/c3ccccc3)[nH]c2cc1OCc1ccccc1	140 to 145
C=Cc1cc(NC(=O)N2CCN(c3cc(F)cc(F)c3)CC2)c(OC)nc1C	160 to 161
O=CNC(=O)N1CC(Oc2cccc(C(F)(F)F)c2)C1	118 to 119
CCC(CC)n1nc(C)c2c(O)nc(C)nc21	202 to 203
CCOC(=O)c1nc(NC(C)=O)sc1Cc1ccc(SC)cc1	205 to 206
Cc1c(C)c2c(c(C)c1O)CC(CCO)O2 (racemic)	123 to 125
O=C(CN1CCC(CN2C(=O)c3ccccc3C2=O)CC1)c1ccc(F)cc1	110 to 113
CC(C)Cn1c(CNC(=O)OC(C)(C)C)c(-c2cccs2)c2cc(O)ccc2c1=O	216 to 217
CCCCCN(Cc1ccc(-c2ccccc2S(=O)(=O)NC(=O)c2ccccc2Cl)cc1)C(=O)N1CCc2ccccc21	83 to 85
CC(C)C(=O)NC(c1ccc(C=NO)cc1)C(F)(F)F (stereo unspecified)	169 to 171
CN(c1ccccc1)c1cc(NCc2ccco2)c(C(=O)O)cc1S(N)(=O)=O	145
COC(=O)c1cnccc1SCc1ccc(OC)cc1	108 to 110

Continued, values first:

melting point [°C]	Compound
276 to 278	CC(=C1SC(=O)NC1=O)c1ccc(OCCOc2c(-c3ccc(F)cc3)n(C)c3cc(F)ccc3c2=O)cc1
199 to 203	NS(=O)(=O)c1ccc(-n2nc(C(F)F)cc2C2CCCCC2)cc1
48 to 50	CCC(O)(c1cncc(OCc2ccc3ccccc3c2)c1)c1nccs1 (stereo unspecified)
70 to 73	CC1C[C@H]2[C@@H](O1)[C@H](N=[N+]=[N-])C(=O)N2Cc1ccccc1 (relative stereo)
189 to 190	CCn1c(=O)n(OCc2ccccc2)c(=O)c2cc(F)c(N3CCCC3)nc21
97.5 to 98.8	CN1CCN(CCNc2ncnc3c2sc2nc(N4CCCC4)c4c(c23)CC(C)(C)OC4)CC1
70 to 90	COC(=O)CC1CCN(CCC=C2c3ccccc3OCOc3ccccc32)C1 (stereo unspecified)
99 to 101	CCCc1nc2c(N)nc3ccccc3c2n1CCOCCCSC
178	CC12CC(F)C3c4ccc(O)cc4CC(CCCCCBr)C3C1CCC2=O (stereo unspecified)
220 to 222	Clc1c2nc3ccccc3c-2[nH]c2ccccc12
185 to 186	CCN1CCCC1CNC(=O)c1cc(Cl)c(O)cc1OC (stereo unspecified)
208 to 210	CC(C)(C)c1cc(CCc2ccccc2NC(=O)NCC2CCCCC2)cc(C(C)(C)C)c1O
194	CS(=O)(=O)N1CCN([C@@H](CNC(=O)c2ccc(OCc3ccc(F)cc3)cc2)C(=O)NO)CC1
218 to 219	NS(=O)(=O)c1cc2c(cc1Cl)C(=O)N(CCN1CCOCC1)C2=O
144 to 145	Nc1ncc(S(=O)c2ccc(C(F)(F)F)cn2)s1 (stereo unspecified)
142	Nc1cc(OCCC2CCCCC2)nc(N)n1
65 to 66	CCN(C/C=C/C#CC(C)(C)C)Cc1cccc(N2C(=O)c3ccccc3C2=O)c1
137	OCc1nc2cc(CN3CCN(C(c4ccccc4)c4ccccc4)CC3)ccc2[nH]1
59 to 64	CCCCN(CC(=O)OCc1ccccc1)S(=O)(=O)c1ccc(N2CCC(NC[C@H](O)c3ccc(O)c(NS(C)(=O)=O)c3)CC2)cc1
218 to 221	N#CC(C(=O)Nc1ccccc1)C(=O)c1nn(-c2ccccc2)c2c1CSc1ccc(NC(=O)CN)cc1-2 (stereo unspecified)
221	CCOC(=O)c1cn(C)c2nc3cc(N4CCN[C@@H](c5ccccc5)C4)c(F)cc3cc2c1=O
90	CCOCc1nc2c(N)nc3ccc(OCc4ccccc4)cc3c2n1CC(C)(C)NC(=O)C1CCCCC1
153 to 155	CCOC(=O)C1CN(c2ccccc2)C(=O)C1=O (stereo unspecified)
138 to 140	CCCNc1nc(=O)n(C2CC(N=[N+]=[N-])C(COC(C)=O)O2)cc1C (stereo unspecified)
95	Cc1ccc(N(c2ccc(C)cc2)c2c(F)cc(F)c(F)c2F)cc1
206 to 208	CC(=O)c1ccc2c(c1)c(=O)c(C(=O)O)cn2Cc1ccc(F)cc1
200	N#Cc1cccc(-c2nc(=O)c3ccccc3s2)c1

melting point [°C]	Compound
260 to 262	Nc1nc2cc(-c3cccnc3)ccc2c2c1nc(CO)n2CC1CCOCC1
260 to 262	CCN(CC)c1ncnc2nc(-c3ccncc3)[nH]c12
116 to 118	CCCc1c(CSc2nnc(SCC(=O)O)s2)ccc(C(C)=O)c1O
105 to 106	Cc1ccc(-c2ccccc2C(=O)NC(C)(C)C)cc1
270 to 272	C=CCC(c1c(Cl)c(Cl)cc2[nH]c(=O)c(=O)[nH]c12)S(C)(=O)=O (stereo unspecified)
237 to 238	Cc1ccsc1C(=O)c1sc(Nc2ccc(N3CCN(C)CC3)cc2)nc1N
86 to 88	CCOCN1C(C)=C(C(=O)OC)C(c2cccc([N+](=O)[O-])c2)C(C(=O)OC)=C1C
156 to 162	Clc1ccc(C2=NNCC2c2ccccc2)cc1 (stereo unspecified)
77 to 78	CC(C)c1c(Cl)nc(OCc2ccccc2)nc1OCc1ccccc1
250 to 255	NC(=O)COC(=O)c1ccc(O)cc1
202 to 204	CN(C)c1ccc(CN[C@@H](C(=O)O)[C@H](O)[C@H](Cc2ccccc2)NC(=O)OC(C)(C)C)cc1
59 to 60	CCOC(=O)c1c(C)nn(-c2ccc(F)cc2)c1C
106 to 108	COC(=O)c1cc(N2C(=O)C(=O)N(C(C)C)C2=O)c(F)cc1Cl
53 to 54	CN(C)C(=O)c1ccccc1N
172	CC(=O)OCC(=O)C1(OC(=O)CC(C)C)CCC2C3CC(C)C4=CC(=O)C=CC4(C)C3C(O)CC21C (stereo unspecified)
305 to 307	O=c1[nH]c2ncc(-c3ccc(-c4cn[nH]c4)cc3)nc2n1CC1CCCCC1
198 to 199	NC(=O)c1cc2c(SCc3ccc(Cl)cc3)cncc2s1
190 to 191	O=C(CNCc1cccc(C(F)(F)F)c1)Nc1cccc2c1C(=O)c1c(NC(=O)CNCc3cccc(C(F)(F)F)c3)cccc1C2=O
299 to 300	N#Cc1ccc(-c2ccc(-c3ccc(C#N)cc3)cc2)cc1
98 to 102	COc1ccc2c(c1)C(=O)C1(O)c3ccc(C(C)C)cc3OC21O (stereo unspecified)
250 to 252	CN(C)C(=O)c1cc(-c2ccccc2)c(=O)n2c1-c1cc(Cl)ccc1CN2
120	COc1ccc(-n2nc(OC(C)C)cc2-c2ccc(OCCNC(N)=O)cc2)cn1
113 to 115	CN(C)C1CC=C(c2c[nH]c3ccc(NC(=N)c4cccs4)cc23)CC1 (stereo unspecified)
214	CC(=O)N1c2ccccc2Sc2c1ccc(O)c2Cl
140	Cc1occ(C(F)(F)F)c1C(=O)O
182 to 185	CC(C)N(C[C@@H](O)[C@@H](C(=O)[C@H](CC(N)=O)NC(=O)c1ccccc1)C(N)c1ccccc1)NC(=O)OC(C)(C)C (stereo partly specified)
